Results on two molecules are retold here after patent US20110015413A1, “PROCESS FOR PREPARING CRYSTALLINE CALCIUM MUPIROCIN DIHYDRATE” (priority 2008, published 2011).

Each structure is given as a SMILES string.

Data set [1] can be described thus: Morphology and particle size by thermal field scanning electron microscopy (FE SEM). Type of data set: physicochemical. Conditions: fused primary particles formed during crystallisation, FIG. 2. The source says: The morphology of crystalline mupirocin calcium dihydrate produced according to the procedure of Example 2 was examined by thermal field scanning electron microscopy (FE SEM). An FE SEM microscope, model JSM-7000F, manufactured by Jeol Ltd., Japan, was used in the inspection of samples. The FE SEM microscope was coupled with an EDS/INCA 350 (energy dispersive X-ray analyzer) manufactured by Oxford Instruments Ltd. The samples inspected by FE SEM were not coated with a conductive layer. […] Calcium mupirocin dihydrate crystallize in a columnar particle shape having a mean particle size from about 100 to about 700 nm. During the crystallisation process primary particles, i.e., crystals, are fused to form agglomerates (FIG. 2) having a mean particle size of about 10 μm. During the drying process, the agglomerates adhere to each other, forming aggregates having a mean particle size from about 30 μm to about 400 μm.

The conditions of data set [2]: amorphous form, quoted description; cited from earlier work.
The conditions of data set [3]: amorphous form, quoted description; cited from earlier work. This is another data set of the same source.

As for `C/C(=C\C(=O)OCCCCCCCCC(=O)O)C[C@@H]1OC[C@H](C[C@@H]2O[C@H]2[C@@H](C)[C@H](C)O)[C@@H](O)[C@H]1O` [Calcium mupirocin dihydrate, mupirocin calcium dihydrate], the “mean particle size of agglomerates” value in data set [1] is reported as “about 10 μm”.

Turning to `C/C(=C\C(=O)OCCCCCCCCC(=O)[O-])C[C@@H]1OC[C@H](C[C@@H]2O[C@H]2[C@@H](C)[C@H](C)O)[C@@H](O)[C@H]1O.C/C(=C\C(=O)OCCCCCCCCC(=O)[O-])C[C@@H]1OC[C@H](C[C@@H]2O[C@H]2[C@@H](C)[C@H](C)O)[C@@H](O)[C@H]1O.O.O.[Ca+2]` [amorphous calcium salt of mupirocin], the water solubility entry in data set [2] is on record as “sparingly water soluble”. Besides, in data set [3], the thermal stability entry is “poor thermal stability”.
